Test results reported in ChEMBL document CHEMBL1146281, “Synthesis and evaluation of peptidic maleimides as transglutaminase inhibitors” (Bioorg Med Chem Lett, 2007).

Species on record: Cavia porcellus
Experiment: Ratio of Kinactivation to KI of guinea pig recombinant liver TGase expressed in Escherichia coli

SMILES | Ratio
O=C(N[C@@H](CCCN1C(=O)C=CC1=O)C(=O)OCc1ccccc1)OCc1ccccc1 | 6.26 mM⁻¹ min⁻¹
O=C(N[C@@H](CCN1C(=O)C=CC1=O)C(=O)OCc1ccccc1)OCc1ccccc1 | 0.67 mM⁻¹ min⁻¹
O=C(N[C@@H](CCCCN1C(=O)C=CC1=O)C(=O)OCc1ccccc1)OCc1ccccc1 | 17.1 mM⁻¹ min⁻¹

Results, then the compound that gave them:

Ratio | SMILES
0.43 mM⁻¹ min⁻¹ | COC(=O)CNC(=O)[C@H](CCCN1C(=O)C=CC1=O)NC(=O)OCc1ccccc1
0.28 mM⁻¹ min⁻¹ | COC(=O)CNC(=O)[C@H](CCN1C(=O)C=CC1=O)NC(=O)OCc1ccccc1
0.83 mM⁻¹ min⁻¹ | COC(=O)CNC(=O)[C@H](CCCCN1C(=O)C=CC1=O)NC(=O)OCc1ccccc1
